Experiments:
Human PARP-1 enzyme = target: T1, Human PARP-1 enzyme (Homo sapiens, UniProt P09874); assay: In vitro Scintillation Proximity Assay (SPA) for PARP-1 inhibitory activity; assay type: biochemical; conditions: read-out: in vitro SPA assay PARP-1 pIC50 (converted)
T1 construct: purchased Trevigen
Method in brief: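 SPA assay: nicked-DNA-activated PARP-1 (0.1–0.2 μg/ml) ADP-ribosylates biotinylated histones (2 μg/ml) using [3H]-NAD+, 20 min at RT in Tris pH 8/DTT/MgCl2, stopped with 2 mM NAD+. Blank-subtracted cpm expressed as % control; IC50 by linear interpolation, reported as pIC50 (10−5 to 3×10−9 M tested).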

HCT116 cells = assay: Mitotic arrest assay on HCT116 cells (phospho-histone H3 Ser10); assay type: cell-based, human; conditions: Homo sapiens, HCT-116, HCT116 cells; lowest active dose; read-out: Mitotic arrest HCT116 LAD (converted)
Method in brief: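 Seeded overnight, then compound-treated 6 h at 37 °C (≤0.1% DMSO); fixed, stained with Alexa Fluor 488 anti-phospho-H3 (Ser10) plus Hoechst 33342, imaged on InCell Analyzer 1000. Blank-subtracted signal divided by SD (sigma), triplicate; value is lowest dose giving sigma >5 (LAD).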

T1 sequence (P09874 whole entry): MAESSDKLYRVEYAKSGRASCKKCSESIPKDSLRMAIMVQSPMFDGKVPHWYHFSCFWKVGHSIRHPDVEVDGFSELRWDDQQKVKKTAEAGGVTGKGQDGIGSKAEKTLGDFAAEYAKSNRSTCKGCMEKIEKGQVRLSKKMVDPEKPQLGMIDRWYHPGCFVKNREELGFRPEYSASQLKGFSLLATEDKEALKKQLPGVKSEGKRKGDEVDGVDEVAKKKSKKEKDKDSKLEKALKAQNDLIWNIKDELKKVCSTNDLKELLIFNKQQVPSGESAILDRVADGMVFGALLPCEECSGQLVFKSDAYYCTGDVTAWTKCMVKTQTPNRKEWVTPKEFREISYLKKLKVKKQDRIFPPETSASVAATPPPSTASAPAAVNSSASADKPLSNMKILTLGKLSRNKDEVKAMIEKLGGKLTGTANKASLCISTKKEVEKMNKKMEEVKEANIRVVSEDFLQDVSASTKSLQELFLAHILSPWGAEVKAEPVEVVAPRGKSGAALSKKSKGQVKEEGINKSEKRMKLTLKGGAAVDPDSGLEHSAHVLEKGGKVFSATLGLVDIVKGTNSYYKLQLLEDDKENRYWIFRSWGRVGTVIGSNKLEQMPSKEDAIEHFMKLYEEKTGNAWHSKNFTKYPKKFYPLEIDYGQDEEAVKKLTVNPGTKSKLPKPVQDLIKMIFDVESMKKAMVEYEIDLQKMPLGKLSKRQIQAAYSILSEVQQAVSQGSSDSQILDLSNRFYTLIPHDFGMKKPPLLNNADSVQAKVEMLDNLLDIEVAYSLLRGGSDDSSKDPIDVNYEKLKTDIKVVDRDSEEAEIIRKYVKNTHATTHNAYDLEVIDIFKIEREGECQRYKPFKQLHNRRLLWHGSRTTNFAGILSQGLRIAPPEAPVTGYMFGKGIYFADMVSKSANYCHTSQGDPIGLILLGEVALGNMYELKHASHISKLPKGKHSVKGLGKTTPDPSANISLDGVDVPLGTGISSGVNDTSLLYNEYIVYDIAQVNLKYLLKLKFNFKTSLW

| IC50 (Human PARP-1 enzyme) [µM] | Structure (SMILES) | minimal effective concentration (HCT116 cells) [µM] |
| --- | --- | --- |
| 0.158 | CCc1cc2ccc(C(C)(C#N)Cc3ccncc3)cc2[nH]c1=O (stereo not drawn) [Compound 98] | > 10 |
| 1 | CCc1cc2ccc(C(C)(C#N)Cc3cc(Cl)ccc3Cl)cc2[nH]c1=O (stereo not drawn) [Compound 99] | 0.1 |
| 0.0501 | CCc1cc2ccc(C(C)(C#N)Cc3ccccc3C#N)cc2[nH]c1=O (stereo not drawn) [Compound 101] | 0.316 |
| 1.58 | CCc1cc2ccc(C(C)(C#N)Cc3ccccc3OC(F)(F)F)cc2[nH]c1=O (stereo not drawn) [Compound 102] | 0.316 |
| 1.26 | CCc1cc2ccc(C(C)(C#N)Cc3ccccc3C(F)(F)F)cc2[nH]c1=O (stereo not drawn) [Compound 103] | 0.316 |
| 0.251 | Cc1cc2ccc(C(C)(C#N)Cc3cc4ccccc4[nH]3)cc2[nH]c1=O (stereo not drawn) [Compound 234] | 3 |
| 0.0794 | CCc1cc2ccc(C(C)(C#N)Cc3ccc(F)c(C#N)c3)cc2[nH]c1=O (stereo not drawn) [Compound 267] | 0.1 |
| 0.0794 | CCc1cc2ccc(C(C)(C#N)CCOc3ccccc3C#N)cc2[nH]c1=O (stereo not drawn) [Compound 276] | 1 |
| 0.398 | CCc1cc2ccc(C(C)(C#N)CCOc3cc(Cl)c(Cl)cc3Cl)cc2[nH]c1=O (stereo not drawn) [Compound 277] | 0.3 |
| 0.1 | CCc1cc2ccc(C(C)(C#N)CCOc3ccccc3F)cc2[nH]c1=O (stereo not drawn) [Compound 278] | 1 |
| 0.0794 | CCc1cc2ccc(C(C)(C#N)CCOc3ccc4c(c3)OCO4)cc2[nH]c1=O (stereo not drawn) [Compound 279] | 1 |
| 0.0794 | CCc1cc2ccc(C(C)(C#N)Cc3cc(OC)cc(OC)c3)cc2[nH]c1=O (stereo not drawn) [Compound 332] | 0.1 |

Reference: patent US8778966B2, “Quinolinone derivatives as PARP and tank inhibitors” (Janssen Pharmaceutica, NV, priority 2007, dated 2014)
